ChEMBL document CHEMBL4811221, “Diosgenin Derivatives as Potential Antitumor Agents: Synthesis, Cytotoxicity, and Mechanism of Action” (J Nat Prod, 2021)

Experiments:
MCF7 = test: Cytotoxicity against human MCF7 cells assessed as cell growth inhibition measured after 24 hrs by MTT assay; format: functional, cell-based; settings: MCF7, 24 h
A549 = test: Cytotoxicity against human A549 cells assessed as cell growth inhibition measured after 24 hrs by MTT assay; format: functional, cell-based; settings: A549, 24 h
L02 = test: Cytotoxicity against human L02 cells assessed as cell growth inhibition measured after 24 hrs by MTT assay; format: cell-based; settings: L02, 24 h
HepG2 = test: Cytotoxicity against human HepG2 cells assessed as cell growth inhibition measured after 24 hrs by MTT assay; format: functional, cell-based; settings: HepG2, 24 h

SMILES | IC50 (MCF7) [µM] | IC50 (A549) [µM] | IC50 (L02) [µM] | IC50 (HepG2) [µM]
C[C@@H]1CC[C@@]2(OC1)O[C@H]1C[C@H]3[C@@H]4CC=C5C[C@@H](OC(=O)CCC(=O)N6CC[N+](Cc7ccc(C(C)(C)C)cc7)(Cc7ccc(C(C)(C)C)cc7)CC6)CC[C@]5(C)[C@H]4CC[C@]3(C)[C@H]1[C@@H]2C | 6 | 3 | 21.2 | 6.7
COc1ccc(C[N+]2(Cc3ccc(OC)cc3)CCN(C(=O)CCC(=O)O[C@H]3CC[C@@]4(C)C(=CC[C@H]5[C@@H]6C[C@@H]7O[C@]8(CC[C@@H](C)CO8)[C@@H](C)[C@@H]7[C@@]6(C)CC[C@@H]54)C3)CC2)cc1 | 9.3 | 5.7 | 23.3 | 9.9
C[C@@H]1CC[C@@]2(OC1)O[C@H]1C[C@H]3[C@@H]4CC=C5C[C@@H](OC(=O)CCC(=O)N6CC[N+](Cc7ccccc7)(Cc7ccccc7)CC6)CC[C@]5(C)[C@H]4CC[C@]3(C)[C@H]1[C@@H]2C | 9.4 | 2.9 | 18.7 | 6.4
Cc1ccc(C[N+]2(Cc3ccc(C)cc3)CCN(C(=O)CCC(=O)O[C@H]3CC[C@@]4(C)C(=CC[C@H]5[C@@H]6C[C@@H]7O[C@]8(CC[C@@H](C)CO8)[C@@H](C)[C@@H]7[C@@]6(C)CC[C@@H]54)C3)CC2)cc1 | > 10 | 3.6 | 18.4 | 6.1
C=CS(=O)(=O)N1CCN(C(=O)CCC(=O)O[C@H]2CC[C@@]3(C)C(=CC[C@H]4[C@@H]5C[C@@H]6O[C@]7(CC[C@@H](C)CO7)[C@@H](C)[C@@H]6[C@@]5(C)CC[C@@H]43)C2)CC1 | > 10 | 4.1 | 23.6 | 5.1
C[C@@H]1CC[C@@]2(OC1)O[C@H]1C[C@H]3[C@@H]4CC=C5C[C@@H](OC(=O)CCCC(=O)N6CCNCC6)CC[C@]5(C)[C@H]4CC[C@]3(C)[C@H]1[C@@H]2C | 6 | 3.2 | 14.8 | 2
C[C@@H]1CC[C@@]2(OC1)O[C@H]1C[C@H]3[C@@H]4CC=C5C[C@@H](OC(=O)c6ccccc6C(=O)N6CCNCC6)CC[C@]5(C)[C@H]4CC[C@]3(C)[C@H]1[C@@H]2C | 8.1 | 7.2 | 27.8 | 7.5
